From paper PMC2858264 (Biochemistry, 2010)

Target: T1, rR-HPCDH1 (Xanthobacter versatilis, UniProt Q56840)
T1 sequence (Q56840 2-250): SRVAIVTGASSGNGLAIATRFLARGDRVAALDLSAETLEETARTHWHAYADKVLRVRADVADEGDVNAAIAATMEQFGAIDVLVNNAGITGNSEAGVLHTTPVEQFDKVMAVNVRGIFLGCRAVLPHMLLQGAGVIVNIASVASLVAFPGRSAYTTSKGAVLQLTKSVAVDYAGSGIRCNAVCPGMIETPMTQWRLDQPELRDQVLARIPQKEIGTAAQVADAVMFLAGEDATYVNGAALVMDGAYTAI
Experiment: NADH absorbance at […] nm, initial rates
Type: biochemical

CC(C)(O)CSCCS(=O)(=O)O [M-HPC, 2-(2-methyl-2-hydroxypropylthio)ethanesulfonate]
Ki: 290 ± 14 µM
